# How the values were obtained:
# [1] = test system: Long Hauler patients suffering from chronic COVID-19; assay: Treatment of Long Hauler patients for chronic COVID-19: symptoms; assay type: in vivo, human; details: 300 mg twice a day for 2 weeks
# Description: (§1) Long Hauler patients suffering from chronic COVID-19 were treated for 2 weeks with 300 mg of Maraviroc (SELZENTRY®) twice a day. […] The results are provided below, which provide patient profiles and LHI (long haul index) as determined using the panel described in the preceding example. LHI is also referred to as “Long Hauler Score” or S1, where S1=(IFN-gamma+IL-2)/CCL4-MIP-1β.
# [2] = test system: plasma cytokines/chemokines of Chronic COVID patients; assay: 14-plex cytokine/chemokine panel in plasma and long hauler index (S1) of treated Chronic COVID patients; assay type: in vivo, human; details: 300 mg twice a day for 2 weeks; for S1 (long haul index, LHI; (IFN-gamma+IL-2)/CCL4-MIP-1β): Normals 0.1
# From the text: Fresh plasma was used for cytokine quantification using a customized 14-plex bead based flow cytometric assay (IncelIKINE, IncellDx, Inc) on a CytoFlex flow cytometer as previously described using the following analytes: ‘TNF-α’, ‘IL-4’, ‘IL-13’, ‘IL-2’, ‘GM-CSF’, ‘sCD40L’, ‘CCL5 (RANTES)’, ‘CCL3 (MIP-1α)’, ‘IL-6’, ‘IL-10’, ‘IFN-γ’, ‘VEGF’, ‘IL-8’, and ‘CCL4 (MIP-1β) (Patterson et al., “CCR5 inhibition in Critical COVID-19 Patients Decreases Inflammatory Cytokines, Increases CD8 T-Cells, and Decreases SARS-CoV2 RNA in Plasma by Day 14”, Int J Infect Dis (2020) doi: 10.1016/j.ijid.2020.10.101). For each patient sample, 25 μL of plasma was used in each well of a 96-well plate. Standard curves with serial 6-point dilutions of antigen were run on each plate for each cytokine. Raw data was analyzed using LegendPlex software (Biolegend, Inc San Diego Calif.). Samples were run in duplicate.
# as §1
substance,measurement,setting,value
Maraviroc,symptoms in long haulers,[1],alleviated or completely resolved symptoms
same,CCL5/RANTES in Chronic COVID patients successfully treated,[2]; Chronic COVID patients,Decreased CCL5/RANTES in Chronic COVID patients successfully treated
same,"long hauler Indices (LHI, S1)",[2]; Long Hauler patients,reduced
same,"S1 (long haul index, LHI; (IFN-gamma+IL-2)/CCL4-MIP-1β)","[2]; patient two, second sample (AB2), first sample AB1 4.0",0.3
same,GM-CSF,"[2]; patient two, second sample (AB2), first sample AB1 6.02",15.09 pg/mL
same,TNF-α,"[2]; patient two, second sample (AB2), first sample AB1 7.75",17.13 pg/mL
same,IL-10,"[2]; patient two, second sample (AB2), first sample AB1 7.90",<0.61 pg/mL
same,IL-6,"[2]; patient two, second sample (AB2), first sample AB1 10.88",<0.6 pg/mL
same,IL-4,"[2]; patient two, second sample (AB2), first sample AB1 11.06",4.12 pg/mL
same,IL-2,"[2]; patient two, second sample (AB2), first sample AB1 12.57",2.15 pg/mL
same,CCL4 (MIP-1β),"[2]; patient two, second sample (AB2), first sample AB1 15.52",8.43 pg/mL
same,IFN-γ,"[2]; patient two, second sample (AB2), first sample AB1 48.78",<0.92 pg/mL
same,VEGF,"[2]; patient two, second sample (AB2), first sample AB1 60.41",22.98 pg/mL
same,CCL3 (MIP-1α),"[2]; patient two, second sample (AB2), first sample AB1 87.65",<1.22 pg/mL
same,CCL5 (RANTES),"[2]; patient two, second sample (AB2), first sample AB1 13082.39",12261.36 pg/mL
same,sCD40L,"[2]; patient two, second sample (AB2), first sample AB1 13488.",12631. pg/ml
same,IL-13,"[2]; patient two, second sample (AB2), first sample AB1 <3.07",4.35 pg/mL
same,IL-8,"[2]; patient two, second sample (AB2), first sample AB1 <15.74",18.37 pg/mL
same,CCL4 (MIP-1β),"[2]; unlabelled patient, second line, first line 3.62",9.79 pg/mL
same,IL-13,"[2]; unlabelled patient, second line, first line 5.56",4.22 pg/mL
same,GM-CSF,"[2]; unlabelled patient, second line, first line 10.40",9.07 pg/mL
same,"S1 (long haul index, LHI; (IFN-gamma+IL-2)/CCL4-MIP-1β)","[2]; unlabelled patient, second line, first line 11.4",1.3
same,TNF-α,"[2]; unlabelled patient, second line, first line 17.86",17.50 pg/mL
same,IL-2,"[2]; unlabelled patient, second line, first line 33.94",4.89 pg/mL
same,VEGF,"[2]; unlabelled patient, second line, first line 39.00",31.62 pg/mL
same,sCD40L,"[2]; unlabelled patient, second line, first line 8980.",41374. pg/ml
same,CCL5 (RANTES),"[2]; unlabelled patient, second line, first line 14334.86",10011.91 pg/mL
same,IL-10,"[2]; unlabelled patient, second line, first line <1.20",<2.49 pg/mL
same,IL-8,"[2]; unlabelled patient, second line, first line <3.82",<9.98 pg/mL
same,IL-6,"[2]; unlabelled patient, second line, first line <4.66",<3.60 pg/mL
same,IL-4,"[2]; unlabelled patient, second line, first line <5.02",<1.22 pg/mL
same,IFN-γ,"[2]; unlabelled patient, second line, first line <7.30",<7.77 pg/mL
same,CCL3 (MIP-1α),"[2]; unlabelled patient, second line, first line <34.82",<45.08 pg/mL

# Reference: patent publication US12228580B2, “Methods of assigning a COVID pathological type based on a cytokine/chemokine panel” (IncellDx, Inc., priority 2020, dated 2025)
